Test systems include BT-549; Hs-578T; COLO 205; M14; PC-3; SNB-19; UACC-257; SK-MEL-5; RXF 393; HCT-116; EKVX; TK-10; MCF7; SK-MEL-2; SK-MEL-28; MDA-N; CCRF-CEM; T47D; SF-295.
Experiment in all cases: NCI tumour cell line growth inhibition, 48 h

Data on 10 compounds can be found in ChEMBL document CHEMBL1201862, “PubChem BioAssay data set” (2004).

Structures are written as SMILES. Several values for one entry are separate records, joined by “and”; a condition that tells them apart may be missing. Equal entries are not always repeated.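 How tested: cells in 96-well plates exposed to compound for 48 hours at five concentrations. GI50 = concentration required for 50% inhibition of growth.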 Activity calls are given as the source filed them. Rule as the data show it: active = GI50 up to about 1.1 µM and inactive = higher.

As for `COCC12CCC(OC)C34C5CC6(O)C(OC)C=C(C5C6OC(=O)c5ccccc5)C(C(OC)C13)C4N(C)C2` (stereo not given), the GI50 was > 100 µM (inactive) in the test with BT-549; 27.1 µM (inactive) with Hs-578T; > 100 µM (inactive) in the test on COLO 205; > 100 µM (inactive) with M14; > 100 µM (inactive) in the test on PC-3; > 100 µM (inactive) in the test with SNB-19. In addition, the GI50 in the test with UACC-257, in the test on SK-MEL-5, in the test on RXF 393, in the test with HCT-116, in the test with EKVX and with TK-10 was > 100 µM (inactive) in each case. Moreover, the GI50 in the test with MCF7, in the test on SK-MEL-2, in the test with SK-MEL-28, with MDA-N, in the test on CCRF-CEM and with T47D was > 100 µM (inactive) in each case. In addition, in the test with SF-295, the GI50 is > 100 µM (inactive).
In the case of `CC(=O)Oc1ccc2c(C)cc(=O)oc2c1`, the GI50 in the test on BT-549, with Hs-578T, with COLO 205, in the test with M14, with PC-3 and in the test on SNB-19 was > 100 µM (inactive) each time. Further, the GI50 with UACC-257, with SK-MEL-5, in the test with RXF 393, with HCT-116, in the test on EKVX and in the test on TK-10 was > 100 µM (inactive) each time. Also, the GI50 with MCF7 was > 100 µM (inactive); in the test with SK-MEL-2 it was > 100 µM (inactive); in the test on SK-MEL-28, > 100 µM (inactive); with MDA-N, > 100 µM (inactive); in the test on CCRF-CEM it was > 100 µM (inactive); with T47D, > 100 µM (inactive) and 61.7 µM (inactive). Further, the GI50 with SF-295 is > 100 µM (inactive).
Take `COC(=O)C1=C(O)C(C(=O)OC)[C@]2(O)[C@H](C(=O)OC)[C@H]1C[C@@H](c1ccc(F)cc1)[C@H]2C(=O)OC` (stereo not given in full): the GI50 in the test on BT-549 was 21.4 µM (inactive); in the test on Hs-578T it was 21.7 µM (inactive); in the test with COLO 205 it was 14.7 µM (inactive); in the test on M14, 10.4 µM (inactive); with PC-3 it was 12.2 µM (inactive); in the test on SNB-19, 19.1 µM (inactive). Further, the GI50 in the test on UACC-257 was 11.9 µM (inactive); with SK-MEL-5, 12.3 µM (inactive); in the test on RXF 393, 11.2 µM (inactive); with HCT-116 it was 7.19 µM (inactive); in the test on EKVX, 17.3 µM (inactive); with TK-10, 21.9 µM (inactive). In addition, the GI50 was 5.35 µM (inactive) in the test with MCF7; 4.35 µM (inactive) in the test with SK-MEL-2; 14.2 µM (inactive) in the test with SK-MEL-28; 3.87 µM (inactive) with MDA-N; 6.85 µM (inactive) in the test on CCRF-CEM; 22.6 µM (inactive) with T47D. The GI50 with SF-295 was 14.2 µM (inactive).
For the compound `O=C1C(Br)=Cc2c(Cl)sc(Cl)c21`, the GI50 was 22.2 µM (inactive) in the test with BT-549; 21.8 µM (inactive) with Hs-578T; 6.76 µM (inactive) with COLO 205; 7.05 µM (inactive) in the test on M14; 2.55 µM (inactive) with PC-3; 18.9 µM (inactive) in the test on SNB-19. The GI50 with UACC-257 is 5.45 µM (inactive); with SK-MEL-5, 19.5 µM (inactive); in the test on RXF 393, 2.46 µM (inactive); in the test on HCT-116 it was 2.03 µM (inactive); in the test on EKVX, 7.24 µM (inactive); in the test on TK-10, 2.17 µM (inactive). Also, the GI50 in the test on MCF7 is 2.44 µM (inactive); in the test with SK-MEL-2 it was 13.6 µM (inactive); in the test on SK-MEL-28, 11.6 µM (inactive); with MDA-N it was 2.44 µM (inactive); in the test with CCRF-CEM it was 0.232 µM (active); with T47D, 2.42 µM (inactive). In addition, the GI50 in the test on SF-295 was 24 µM (inactive).
`CN(/N=C/c1ccccn1)C1=NCCCCN1`: the GI50 with BT-549, with Hs-578T, in the test with COLO 205, in the test on M14, in the test on PC-3 and with SNB-19 was > 100 µM (inactive) throughout. For the same compound, the GI50 in the test on UACC-257, with SK-MEL-5, in the test on RXF 393, in the test on HCT-116, in the test on EKVX and with TK-10 was > 100 µM (inactive) each time. The GI50 with MCF7, in the test on SK-MEL-2, in the test on SK-MEL-28, in the test on MDA-N, in the test on CCRF-CEM and in the test on T47D was > 100 µM (inactive) in each case. Besides, in the test with SF-295, the GI50 is > 100 µM (inactive).
Turning to `CC(C)C(NC(=O)Oc1ccccc1)C(=O)NC1c2c(Br)sc(Br)c2C(=O)C1O` (stereo not given), the GI50 in the test with BT-549 is 3.67 µM (inactive); in the test on Hs-578T, 8.95 µM (inactive); with COLO 205 it was 7.29 µM (inactive); in the test on M14, 4.58 µM (inactive); in the test with PC-3, 8.53 µM (inactive); with SNB-19 it was 4.93 µM (inactive). Also, the GI50 was 4.72 µM (inactive) with UACC-257; 4.53 µM (inactive) in the test on SK-MEL-5; 3.75 µM (inactive) with RXF 393; 3.97 µM (inactive) in the test on HCT-116; 6.4 µM (inactive) in the test with EKVX; 8.49 µM (inactive) in the test with TK-10. Moreover, the GI50 in the test on MCF7 was > 25 µM (inactive); in the test on SK-MEL-2, 7.33 µM (inactive); in the test on SK-MEL-28 it was 4.93 µM (inactive); in the test with MDA-N it was 11.6 µM (inactive); in the test on CCRF-CEM, 7.62 µM (inactive); with T47D, 6.34 µM (inactive). For the same compound, in the test with SF-295, the GI50 was > 25 µM (inactive).
`NC(=O)SCCC(N)C(=O)O` (stereo not given): the GI50 with BT-549, in the test with Hs-578T, in the test with COLO 205, in the test with M14, with PC-3 and in the test with SNB-19 was > 100 µM (inactive) throughout. The GI50 with UACC-257, in the test on SK-MEL-5, in the test on RXF 393, in the test on HCT-116, with EKVX and in the test on TK-10 was > 100 µM (inactive) each time. Also, the GI50 in the test with MCF7, with SK-MEL-2, in the test on SK-MEL-28, in the test with MDA-N, with CCRF-CEM and with T47D was > 100 µM (inactive) throughout. Also, the GI50 in the test on SF-295 is > 100 µM (inactive).
`CCOC(=O)CCC(NC(=O)c1ccc(Nc2cnc3ccc(C(F)(F)F)cc3n2)cc1)C(=O)OCC` (stereo not given): the GI50 with BT-549 was 20.9 µM (inactive); in the test with Hs-578T, 6.79 µM (inactive); in the test with COLO 205, > 100 µM (inactive); with M14, > 100 µM (inactive); in the test on PC-3, > 81.8 µM (inactive); with SNB-19, 13 µM (inactive). Besides, the GI50 with UACC-257 was > 74.3 µM (inactive); with SK-MEL-5 it was > 64.7 µM (inactive); with RXF 393, 15 µM (inactive); with HCT-116, 14.5 µM (inactive); in the test with EKVX it was 30.1 µM (inactive); with TK-10, 4.97 µM (inactive). For the same compound, the GI50 in the test on MCF7 is 27.9 µM (inactive); in the test on SK-MEL-2 it was > 96.4 µM (inactive); in the test on SK-MEL-28, > 100 µM (inactive); in the test on MDA-N, > 100 µM (inactive); with CCRF-CEM, > 100 µM (inactive); in the test with T47D, 5.45 µM (inactive). Also, in the test on SF-295, the GI50 was 31.1 µM (inactive).
For the compound `CC1CCC2(OC1)OC1CC3C4CC=C5CC(OC6OC(CO)C(OC7OC(C)C(OC8OC(C)C(O)C(O)C8O)C(O)C7O)C(O)C6OC6OC(C)C(O)C(O)C6O)CCC5(C)C4CCC3(C)C1C2C` (stereo not given), the GI50 in the test with BT-549 was 1.66 µM (inactive); in the test with Hs-578T it was 0.264 µM (active); in the test on COLO 205, 1.28 µM (inactive); in the test with M14 it was 1.05 µM (active); with PC-3, 0.724 µM (active); with SNB-19, 0.262 µM (active). In addition, the GI50 was 0.74 µM (active) in the test with UACC-257; 1.43 µM (inactive) with SK-MEL-5; 0.583 µM (active) with RXF 393; 0.521 µM (active) in the test on HCT-116; 0.757 µM (active) with EKVX; 1.39 µM (inactive) with TK-10. The GI50 in the test on MCF7 was 1.38 µM (inactive); in the test on SK-MEL-2 it was 1.21 µM (inactive); in the test with SK-MEL-28, 0.612 µM (active); in the test on MDA-N, 0.4 µM (active); with CCRF-CEM it was 0.0643 µM (active); in the test on T47D it was 1.24 µM (inactive). Besides, in the test with SF-295, the GI50 is 0.308 µM (active).
Turning to `c1ccc(C(OCCN2CC3CCC(C2)N3)c2ccccc2)cc1`, the GI50 is 22 µM (inactive) in the test on BT-549; 75.9 µM (inactive) in the test on Hs-578T; 19 µM (inactive) in the test with COLO 205; 17.1 µM (inactive) in the test with M14; > 100 µM (inactive) with PC-3; > 100 µM (inactive) in the test with SNB-19. Also, the GI50 is 22.7 µM (inactive) with UACC-257; 18.5 µM (inactive) in the test on SK-MEL-5; 43.8 µM (inactive) in the test on RXF 393; 40.4 µM (inactive) in the test with HCT-116; > 100 µM (inactive) in the test on EKVX; > 100 µM (inactive) with TK-10. Also, the GI50 was 48.6 µM (inactive) with MCF7; 76.7 µM (inactive) in the test on SK-MEL-2; 29.9 µM (inactive) with SK-MEL-28; 26.4 µM (inactive) in the test on MDA-N; > 100 µM (inactive) in the test on CCRF-CEM; 29.9 µM (inactive) in the test on T47D. In addition, the GI50 in the test on SF-295 was 83 µM (inactive).
